The results in this text go back to US7737127B2, “2-propynyl adenosine analogs having A2A agonist activity and compositions thereof” (University of Virginia Patent Foundation, priority 2001, dated 2010).

SMILES strings stand for the structures. Like-named read-outs stand apart in the source and are kept apart here.

One assay deals with human neutrophils. Kind of assay: Human neutrophil oxidative activity, luminol-enhanced chemiluminescence. It is filed as cell-based. The note with it: for EC50: Homo sapiens, Neutrophil, read-out: PMN oxid (-log EC50) (converted); for EC50 / PMN oxid (-log EC50): human neutrophil experiment w/o Rolipram; for PMN oxid + roli (-log EC50): human neutrophil experiment w/Rolipram. In a few lines:
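Purified human neutrophils (5–10×10^5/ml) pre-incubated 30 min at 37 °C with the A2A agonist, ± rolipram and ± TNF-α (1 U/ml), then stimulated with fMLP (1 μM final). Peak luminol-enhanced chemiluminescence expressed as percent of no-agonist control. EC50 from three donors.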

A further assay addresses T1, human A1 AR (Homo sapiens, UniProt P30542).
T1 sequence (P30542 1-326): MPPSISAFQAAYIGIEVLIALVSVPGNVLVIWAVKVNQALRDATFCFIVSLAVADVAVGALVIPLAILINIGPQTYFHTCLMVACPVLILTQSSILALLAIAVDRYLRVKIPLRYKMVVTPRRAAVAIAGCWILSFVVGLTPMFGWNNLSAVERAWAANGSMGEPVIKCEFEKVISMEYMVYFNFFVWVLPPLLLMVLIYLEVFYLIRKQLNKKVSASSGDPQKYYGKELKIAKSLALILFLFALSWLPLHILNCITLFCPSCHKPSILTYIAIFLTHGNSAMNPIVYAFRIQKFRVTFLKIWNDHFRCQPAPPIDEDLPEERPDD
Kind of assay: Radioligand competition binding (125I-ABA) to human A1 AR in CHO K1 cell membranes. To be noted: for Ki: Ki from competition binding, 125I-ABA, CHO K1 cell membranes; for A1/A2A: selectivity ratio A1 over A2A. For orientation: Loss of bound radioactivity is the signal in a displacement assay; it reports binding, not function.

The next assay deals with T2, A3 AR (Homo sapiens, UniProt P0DMS8).
T2 sequence (P0DMS8 1-318): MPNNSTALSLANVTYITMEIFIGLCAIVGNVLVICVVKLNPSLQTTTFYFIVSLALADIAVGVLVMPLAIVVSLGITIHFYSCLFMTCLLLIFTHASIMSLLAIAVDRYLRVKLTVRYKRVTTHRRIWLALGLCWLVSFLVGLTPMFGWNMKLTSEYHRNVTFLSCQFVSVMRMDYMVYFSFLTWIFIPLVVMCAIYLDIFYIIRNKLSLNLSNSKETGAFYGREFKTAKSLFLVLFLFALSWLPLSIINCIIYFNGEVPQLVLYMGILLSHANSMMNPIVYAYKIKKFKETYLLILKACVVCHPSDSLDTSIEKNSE
Kind of assay: Radioligand competition binding (125I-ABA) to human A3 AR in HEK 293 cell membranes. To be noted: for Ki: Ki from competition binding, 125I-ABA, HEK 293 cell membranes; for A3/A2A: selectivity ratio A3 over A2A.

The target of assay [1] is recombinant human A2A receptors (Homo sapiens, UniProt P29274). Kind of assay: Radioligand competition binding to recombinant human A2A receptors in Sf9 cell membranes. To be noted: Ki from competition binding, Sf9 cell membranes.
Chain of recombinant human A2A receptors (P29274 whole entry): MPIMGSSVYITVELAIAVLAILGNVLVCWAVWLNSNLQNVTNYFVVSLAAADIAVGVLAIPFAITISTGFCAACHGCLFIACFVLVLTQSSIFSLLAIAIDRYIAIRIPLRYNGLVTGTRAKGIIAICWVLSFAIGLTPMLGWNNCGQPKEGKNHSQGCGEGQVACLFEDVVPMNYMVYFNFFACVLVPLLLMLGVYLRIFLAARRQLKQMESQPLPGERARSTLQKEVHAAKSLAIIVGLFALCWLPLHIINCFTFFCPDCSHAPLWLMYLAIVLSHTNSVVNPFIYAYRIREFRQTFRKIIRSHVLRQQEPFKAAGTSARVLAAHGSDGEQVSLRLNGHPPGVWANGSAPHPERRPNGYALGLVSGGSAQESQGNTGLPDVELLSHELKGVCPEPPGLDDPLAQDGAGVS

Protocol for A3 AR: (§1) Sf9 cells were cultured in Grace's medium supplemented with 10% fetal bovine serum, 2.5 μg/ml amphotericin B and 50 μg/ml gentamycin in an atmosphere of 50% N2/50% O2. […] Infected cells were harvested 3 days post-infection and washed twice in insect PBS (PBS pH 6.3). Cells were then resuspended in lysis buffer (20 mM HEPES pH 7.5, 150 mM NaCl, 3 mM MgCl2, 1 mM β-mercaptoethanol (BME), 5 μg/mL leupeptin, 5 μg/mL pepstatin A, 1 μg/mL aprotinin, and 0.1 mM PMSF) and snap frozen for storage at −80° C. Cells were thawed on ice, brought to 30 mL total volume in lysis buffer, and burst by N2 cavitation (600 psi for 20 minutes). A low-speed centrifugation was performed to remove any unlysed cells (1000×g for 10 minutes), followed by a high-speed centrifugation (17,000×g for 30 minutes). The pellet from the final centrifugation was homogenized in buffer containing 20 mM HEPES pH 8, 100 mM NaCl, 1% glycerol, 2 μg/mL leupeptin, 2 μg/mL pepstatin A, 2 μg/mL Aprotinin, 0.1 mM PMSF, and 10 μM GDP using a small glass homogenizer followed by passage through a 26 gauge needle. Membranes were aliquoted, snap frozen in liquid N2, and stored at −80° C.
(§2) Binding experiments were performed in triplicate with 5 μg (A2A) or 25 μg (A1 and A3) membrane protein in a total volume of 0.1 mL HE buffer (20 mM HEPES and 1 mM EDTA) with 1 U/mL adenosine deaminase and 5 mM MgCl2 with or without 50 μM GTPγS. Membranes were incubated with radioligands at room temperature for three hours (for agonists) or two hours (for antagonists) in Millipore Multiscreene® 96-well GF/C filter plates and assays were terminated by rapid filtration on a cell harvester (Brandel, Gaithersburg, Md.) followed by 4×150 μl washes over 30 seconds with ice cold 10 mM Tris-HCl, pH 7.4, 10 mM MgCl2.
Protocol for human A1 AR: as §1, §2

The EC50 is the concentration giving half of the maximal effect. Take `CCNC(=O)[C@H]1O[C@@H](n2cnc3c(N)nc(C#CCC4CCN(C(=O)OC)CC4)nc32)C(O)C1O` (stereo in doubt) [JR-4007, 4-{3-[6-Amino-9-(5-ethylcarbamoyl-3,4-dihydroxytetrahydrofuran-2-yl)-9H-purin-2-yl]-prop-2-ynyl}-piperidine-1-carboxylic acid methyl ester]: the EC50 in the assay with human neutrophils is 0.0017 µM. The Ki on human A1 AR (A1 ± SEM) turned out to be 0.0346 ± 0.0014 µM; at A3 AR (A3 ± SEM) it was 0.0652 µM; in assay [1] (A2A ± SEM), 0.00097 ± 0.00033 µM. Also, the A1/A2A on human A1 AR was 35.7. Moreover, the A3/A2A on A3 AR amounted to 67.2.

With `CCNC(=O)[C@H]1O[C@@H](n2cnc3c(N)nc(C#CCC4CCN(C(=O)OC(C)C)CC4)nc32)C(O)C1O` (stereo in doubt) [JR-4009, 4-{3-[6-Amino-9-(5-ethylcarbamoyl-3,4-dihydroxytetrahydrofuran-2-yl)-9H-purin-2-yl]-prop-2-ynyl}-piperidine-1-carboxylic acid isopropyl ester], the EC50 in the assay on human neutrophils is 0.00355 µM. Besides, the Ki on human A1 AR (A1 ± SEM) was 0.167 µM; on A3 AR (A3 ± SEM), 0.086 µM; in assay [1] (A2A ± SEM), 0.00143 ± 0.00023 µM. Besides, the A1/A2A at human A1 AR is reported as 116.4. Besides, on A3 AR, the A3/A2A came out at 60.1.

With `CCNC(=O)[C@H]1O[C@@H](n2cnc3c(N)nc(C#CCC4CCN(C(=O)OCC(C)C)CC4)nc32)C(O)C1O` (stereo in doubt) [JR-4011, 4-{3-[6-Amino-9-(5-ethylcarbamoyl-3,4-dihydroxytetrahydrofuran-2-yl)-9H-purin-2-yl]-prop-2-ynyl}-piperidine-1-carboxylic acid isobutyl ester], in the assay on human neutrophils, the EC50 was 0.00347 µM. Also, at human A1 AR, the A1/A2A was found to be 0.0. The Ki at A3 AR (A3 ± SEM) worked out at 0.0717 µM; in assay [1] (A2A ± SEM) it was 0.00061 ± 6e-05 µM. Also, the A3/A2A at A3 AR came out at 117.5.

With `CCNC(=O)[C@H]1O[C@@H](n2cnc3c(N)nc(C#CC[C@H]4CC[C@H](COC(=O)OC)CC4)nc32)C(O)C1O` (stereo partly drawn) [ATL214, N-Ethyl 2-{3-[trans-4-(methoxycarbonyloxymethyl)-cyclohexyl]-1-propyn-1-yl}adenosine-5′-uronamide], the EC50 in the assay on human neutrophils is 0.002 µM. Besides, the results for the Ki (on human A1 AR (A1 ± SEM); at A3 AR (A3 ± SEM); in assay [1] (A2A ± SEM)) were 0.1 µM, 0.1 µM and 0.0008 µM, respectively. Also, the A1/A2A on human A1 AR worked out at 125. At A3 AR, the A3/A2A is recorded as 125.

Turning to `COC(=O)C1CCC(CC#Cc2nc(N)c3ncn(C4OC(CO)C(O)C4O)c3n2)CC1` (stereo not shown) [JR-2145], in the assay with human neutrophils, the “PMN oxid + roli (-log EC50)” value is listed as 8.57. Also, the “PMN oxid (-log EC50)” value with human neutrophils is on record as 7.19. Further, the Ki on human A1 AR (read-out: A1 ± SEM) came to 0.0283 ± 0.0073 µM; at A3 AR (read-out: A3 ± SEM), 0.101 ± 0.022 µM; in assay [1] (read-out: A2A ± SEM) it was 0.0007 ± 0.00016 µM. On human A1 AR, the A1/A2A amounted to 42.2. The A3/A2A at A3 AR was determined as 150.7.

Consider `CC(=O)OCC1CCC(CC#Cc2nc(N)c3ncn(C4OC(CO)C(O)C4O)c3n2)CC1` (stereo not shown) [JR-2147], for which the “PMN oxid + roli (-log EC50)” value in the assay on human neutrophils is reported as 8.57. For the same molecule, the “PMN oxid (-log EC50)” value in the assay with human neutrophils is 7.13. Further, the Ki at human A1 AR (read-out: A1 ± SEM) amounted to 0.0175 ± 0.0052 µM; on A3 AR (read-out: A3 ± SEM), 0.089 ± 0.021 µM; in assay [1] (read-out: A2A ± SEM), 0.0009 ± 0.00038 µM. The A1/A2A on human A1 AR stood at 19.0. Moreover, on A3 AR, the A3/A2A stood at 96.7.

Regarding `CCNC(=O)C1OC(n2cnc3c(N)nc(C#CC4(O)CCCCC4)nc32)C(O)C1O` (stereo not shown) [JR-3089], the “PMN oxid + roli (-log EC50)” value with human neutrophils turned out to be 9.9. Also, in the assay on human neutrophils, the “PMN oxid (-log EC50)” value is reported as 9.14. Further, the values for the Ki (at human A1 AR (read-out: A1 ± SEM); at A3 AR (read-out: A3 ± SEM); in assay [1] (read-out: A2A ± SEM)) were 0.0071 ± 0.0011 µM, 0.0044 ± 0.011 µM and 0.0007 ± 5e-05 µM, respectively. Besides, on human A1 AR, the A1/A2A is on record as 10.8. Besides, the A3/A2A on A3 AR turned out to be 6.7.

For the molecule `CCNC(=O)[C@H]1O[C@@H](n2cnc3c(N)nc(C#CC4(O)CCCC(C)C4)nc32)C(O)C1O` (stereo partly shown) [JR-3179, 5-[6-Amino-2-(1-hydroxy-3-methyl-cyclohexylethynyl)-purin-9-yl]-3,4-dihydroxytetrahydrofuran-2-carboxylic acid ethylamide], the EC50 in the assay with human neutrophils was 0.000661 µM. Also, in the assay with human neutrophils, the “PMN oxid + roli (-log EC50)” value is listed as 10.07. The Ki was 0.0085 ± 0.0003 µM on human A1 AR (A1 ± SEM), 0.0126 ± 0.0036 µM at A3 AR (A3 ± SEM) and 0.0004 ± 5e-05 µM in assay [1] (A2A ± SEM). Besides, the A1/A2A on human A1 AR amounted to 19.3. In addition, on A3 AR, the A3/A2A is listed as 28.6.

Take `CCNC(=O)C1OC(n2cnc3c(N)nc(C#CC4(N)CCCCC4)nc32)C(O)C1O` (stereo not shown) [JR-3205]: the “PMN oxid + roli (-log EC50)” value in the assay with human neutrophils is 8.08. Moreover, the “PMN oxid (-log EC50)” value with human neutrophils is recorded as 7.22. Also, the Ki at human A1 AR (read-out: A1 ± SEM) turned out to be 0.0142 ± 0.00108 µM; at A3 AR (read-out: A3 ± SEM), 0.0316 ± 0.0265 µM; in assay [1] (read-out: A2A ± SEM) it was 0.0034 ± 0.0003 µM. In addition, the A1/A2A on human A1 AR amounted to 4.2. In addition, at A3 AR, the A3/A2A is recorded as 9.3.

Take `CCNC(=O)[C@H]1O[C@@H](n2cnc3c(N)nc(C#C[C@@]4(O)CCC[C@@H](C)C4)nc32)C(O)C1O` (stereo partly shown) [JR-3221, 5-[6-Amino-2-(1-hydroxy-3-methylcyclobexylethynyl)purin-9-yl]-3,4-dihydroxytetrahydrofuran-2-carboxylic acid ethylamide]: in the assay on human neutrophils, the EC50 is 0.0501 µM. The “PMN oxid + roli (-log EC50)” value in the assay with human neutrophils is given as 8.21. Moreover, the results for the Ki (at human A1 AR (A1 ± SEM); on A3 AR (A3 ± SEM); in assay [1] (A2A ± SEM)) were 0.0195 ± 0.00012 µM, 0.009 ± 0.0055 µM and 0.00508 ± 0.00081 µM, respectively. Also, the A1/A2A on human A1 AR worked out at 3.8. At A3 AR, the A3/A2A is on record as 1.8.

For `CCNC(=O)[C@H]1O[C@@H](n2cnc3c(N)nc(C#CCN4CCCCC4C(=O)OC)nc32)C(O)C1O` (stereo partly shown) [JR-3253, 1-{3-[6-Amino-9-(5-ethylcarbamoyl-3,4-dihydroxytetrahydrofuran-2-yl)-9H-purin-2-yl]-prop-2-ynyl}-piperidine-2-carboxylic acid methyl ester], the EC50 in the assay with human neutrophils was 0.0437 µM. For the same molecule, the “PMN oxid + roli (-log EC50)” value in the assay with human neutrophils turned out to be 8.42. In addition, the Ki at human A1 AR (A1 ± SEM) worked out at 0.0138 ± 0.0005 µM; at A3 AR (A3 ± SEM), 0.0313 ± 0.0093 µM; in assay [1] (A2A ± SEM), 0.00329 ± 0.00049 µM. Moreover, the A1/A2A on human A1 AR was 4.2. The A3/A2A at A3 AR is given as 9.5.

Consider `CCNC(=O)C1OC(n2cnc3c(N)nc(C#CCC4CCNCC4)nc32)C(O)C1O` (stereo not shown) [JR-3261], for which the “PMN oxid + roli (-log EC50)” value in the assay with human neutrophils amounted to 7.6. In the assay on human neutrophils, the “PMN oxid (-log EC50)” value was 6.4. The results for the Ki (on human A1 AR (read-out: A1 ± SEM); at A3 AR (read-out: A3 ± SEM); in assay [1] (read-out: A2A ± SEM)) were 0.0473 ± 0.0116 µM, 0.0867 ± 0.00375 µM and 0.0057 ± 0.0018 µM, respectively. Moreover, the A1/A2A on human A1 AR stood at 8.3. The A3/A2A at A3 AR is 15.2.
